Reference: ChEMBL document CHEMBL1147188, “Metal complexes of retinoid derivatives with antiproliferative activity: synthesis, characterization and DNA interaction studies” (Eur J Med Chem, 2007)

How the values were obtained:
PBMC = test: Growth inhibition of human PBMC after 48 hrs by XTT assay; format: cell-based
[1] = Partition coefficient, log P of the compound; format: physicochemical; conditions: octanol/water
Homo sapiens = species: Homo sapiens; test: Binding affinity to DNA

logP [1]: 1.05 | Kb (Homo sapiens): 8.3 10^5/M
Compound: CC1=C(/C=C/C(C)=C\C=C\C(C)=C\C=N/NC(N)=S)C(C)(C)CCC1
Activity (PBMC): Non-toxic
